In experiment [1] the test system is stimulated primary human T cells. In words: T cell proliferation assay (rescue of proliferation in presence of ATP, CFSE dilution). It is filed as cell-based. The conditions noted are these: 100 uM ATP. The protocol:
The aim of this study was to determine the potency of equilibrative nucleoside transporter 1 (ENT1) inhibitors to rescue proliferation by stimulated primary human T cells incubated in the presence of 100 uM Adenosine triphosphate (ATP), in baseline conditions (condition A) or in the presence of various proteins known to bind small molecules (condition B). Condition A: X-VIVO15 Condition B: X-VIVO15, 2% Human Serum Albumine (HSA) and 0,1% α-1-Acid Glycoprotein (AAG)
Cryopreserved purified human CD3+ T cells were thawed and washed twice with RPMI1640 medium, UltraGlutamine containing 10% hiFBS.
Cells were suspended in PBS containing 10% hiFBS. Cells were stained with CFSE by adding 2 µM solution in PBS, to get a final 1 µM CFSE solution. Cells were incubated while rotating for 5 minutes. Reaction was stopped by adding PBS with 10% FBS and cells were centrifuged for 5 minutes at 1500 rpm.
Cells were resuspended at 1.6 ×10^6 cells/mL, either in X-VIVO15 medium or in 4% Human Serum Albumin and 0,2% α-1-Acid Glycoprotein. 50 µL of cell suspension (8×10^4 T cells) was added to wells of sterile round-bottom 96-well plates. Cells were activated by adding 50 µL of anti-CD3 anti-CD28 coated microbeads, suspended either in XVIVO-15 medium or in 4% HSA and 0,2% α-1-Acid Glycoprotein, at a ratio of one microbead per two cells. Serial dilutions of the ENT1 inhibitors were prepared in X-VIVO15 from 10 mM stock solutions in DMSO, and 50 µL was added to the wells. ATP powder was diluted in X-VIVO15, and 50 µL of this compound was added to the wells to reach a final assay concentration of 100 µM. Final volume of 200 µL. The experiments were also performed in 384 well plates - all volumes reduced by a factor of 4 (12,5 µL) with a final volume of 50 µL. Experiments were performed in duplicate. The cells were placed in a 37° C. humidified tissue culture incubator with 5% CO2 for 72 hours for 96 well plates, 96 hours for 384 well plates. After 72 or 96 hours, proliferation was measured determined by CFSE dilution via flow cytometry.

For another experiment, the target named is T1, human ENT1 (Homo sapiens, UniProt Q99808).
T1 sequence (Q99808 1-456): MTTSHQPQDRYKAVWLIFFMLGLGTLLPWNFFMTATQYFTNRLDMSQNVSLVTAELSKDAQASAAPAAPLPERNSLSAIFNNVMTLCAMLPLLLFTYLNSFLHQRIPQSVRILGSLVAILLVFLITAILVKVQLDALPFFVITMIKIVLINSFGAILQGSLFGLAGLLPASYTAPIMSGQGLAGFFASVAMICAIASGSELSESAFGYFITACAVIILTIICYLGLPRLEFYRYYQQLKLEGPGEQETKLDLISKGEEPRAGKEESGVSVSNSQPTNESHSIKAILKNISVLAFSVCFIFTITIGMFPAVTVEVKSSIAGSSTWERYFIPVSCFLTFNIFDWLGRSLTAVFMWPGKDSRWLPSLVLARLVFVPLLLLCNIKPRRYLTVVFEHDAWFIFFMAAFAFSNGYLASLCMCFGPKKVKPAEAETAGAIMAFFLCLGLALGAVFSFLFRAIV
In words: ENT1 binding assay (competition with Sahenta-DY647 on JAR cells). The settings on record: competition with Sahenta-DY647 100 nM, 4° C. On the set-up: JAR cells expressing ENT1 were bought from ATCC® (HTB-144TM); host or cells: JAR cells (human choriocarcinoma line; whole cells). In a few lines:
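Competition binding on intact JAR cells (50000 per well) in HBSS with 10 mM Hepes and 0.1% BSA. Cells pre-incubated with compound 30 min at 4 °C, then Sahenta-DY647 added at its IC90 (100 nM) for another 30 min at 4 °C; after washing, fluorescence read at Ex 630/Em 670 nm.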

[2] abbreviates: Condition A: X-VIVO15, read-out: T Cell proliferation (Condition A) IC50.
The mark [3] stands for this setting: Condition B: X-VIVO15, 2% HSA and 0,1% AAG, read-out: (2) T Cell proliferation (Condition B) IC50.

Like-named read-outs stand apart in the source and are kept apart here. Bounds are passed on as bounds.

Take `COc1cc2cc(c1OC)OCCCC(OC(=O)CCCC#N)CCN1CCCN(CCCOC2=O)CC1` (stereo not shown) [Compound 96, 74,75-dimethoxy-6-oxo-5,8-dioxa-1 (1,4)-diazepana-7(1,3)-benzenacyclotetradecaphane-12-yl 4-cyanobutanoate]: the IC50 was 1 to 20 nM in experiment [1] (setting [2]), > 500 nM in experiment [1] (setting [3]) and 1 to 20 nM on human ENT1.

Regarding `COc1cc2cc(c1OC)OCCC[C@H](OC(=O)c1ccccc1)CCN1CCCN(CCCOC2=O)CC1` [Compound 33, (12S)-74,75-dimethoxy-6-oxo-5,8-dioxa-1(1,4)-diazepana-7(1,3)-benzenacyclotetradecaphane-12-yl benzoate], the IC50 (in experiment [1] (setting [2]); in experiment [1] (setting [3]); at human ENT1) was > 500 nM in each case.

Take `COc1cc2cc(c1OC)OCCCC(OC(=O)C1CC1)CCN1CCCN(CCCOC2=O)CC1` (stereo not shown) [Compound 60, 74,75-dimethoxy-6-oxo-5,8-dioxa-1(1,4)-diazepana-7(1,3)-benzenacyclotetradecaphane-12-yl cyclopropanecarboxylate]: the IC50 was 1 to 20 nM in experiment [1] (setting [2]), > 500 nM in experiment [1] (setting [3]) and 1 to 20 nM on human ENT1.

For `COc1cc(C(=O)O[C@@H]2CCCOc3cc(cc(OC)c3OC)C(=O)OCCCN3CCCN(CC2)CC3)cc(OC)c1OC` [Compound 1, (12R)-74,75-dimethoxy-6-oxo-5,8-dioxa-1(1,4)-diazepana-7(1,3)-benzenacyclotetradecaphane-12-yl 3,4,5-trimethoxybenzoate], the IC50 in experiment [1] (setting [2]) is < 1 nM; in experiment [1] (setting [3]), < 1 nM; on human ENT1 it was 1 to 20 nM.

On to `COc1cc2cc(c1OC)OCCCC(OC(=O)c1cnccn1)CCN1CCCN(CCCOC2=O)CC1` (stereo not shown) [Compound 54, 74,75-dimethoxy-6-oxo-5,8-dioxa-1(1,4)-diazepana-7(1,3)-benzenacyclotetradecaphane-12-yl pyrazine-2-carboxylate], for which the IC50 in experiment [1] (setting [2]) was 20 to 500 nM; in experiment [1] (setting [3]), > 500 nM; on human ENT1, 1 to 20 nM.

Turning to `COc1cc2cc(c1OC)OCCCC(OC(=O)c1c[nH]nn1)CCN1CCCN(CCCOC2=O)CC1` (stereo not shown) [Compound 58, 74,75-dimethoxy-6-oxo-5,8-dioxa-1(1,4)-diazepana-7(1,3)-benzenacyclotetradecaphane-12-yl 1 H-1,2,3-triazole-4-carboxylate], the IC50 was 1 to 20 nM in experiment [1] (setting [2]), > 500 nM in experiment [1] (setting [3]) and 1 to 20 nM at human ENT1.

`COc1cc2cc(c1OC)OCCC[C@@H](OC(=O)c1ccccc1)CCN1CCCN(CCCOC2=O)CC1` [Compound 32, (12R)-74,75-dimethoxy-6-oxo-5,8-dioxa-1(1,4)-diazepana-7(1,3)-benzenacyclotetradecaphane-12-yl benzoate]: the IC50 in experiment [1] (setting [2]) is < 1 nM; in experiment [1] (setting [3]), 20 to 500 nM.

In turn, `COc1cc2cc(c1OC)OCCCC(OC(=O)c1cccnc1)CCN1CCCN(CCCOC2=O)CC1` (stereo not shown) [Compound 53, 74,75-dimethoxy-6-oxo-5,8-dioxa-1(1,4)-diazepana-7(1,3)-benzenacyclotetradecaphane-12-yl nicotinate] yielded an IC50 on human ENT1 of 1 to 20 nM.

In the case of `COc1cc2cc(c1OC)OCCCC(OC(=O)CCN1C(=O)CCC1=O)CCN1CCCN(CCCOC2=O)CC1` (stereo not shown) [Compound 110, 74,75-dimethoxy-6-oxo-5,8-dioxa-1(1,4)-diazepana-7(1,3)-benzenacyclotetradecaphane-12-yl 3-(2,5-dioxopyrrolidin-1-yl)propanoate], the IC50 at human ENT1 fell in the range of 20 to 500 nM.

In turn, `COc1cc2cc(c1OC)OCCCC(OC(=O)CCOc1ccc(F)cc1)CCN1CCCN(CCCOC2=O)CC1` (stereo not shown) [Compound 104, 74,75-dimethoxy-6-oxo-5,8-dioxa-1(1,4)-diazepana-7(1,3)-benzenacyclotetradecaphane-12-yl 3-(4-fluorophenoxy)propanoate] gave an IC50 at human ENT1 of 1 to 20 nM.

In turn, `COc1cc2cc(c1OC)OCCCC(OC(=O)c1cccc(C(F)(F)F)c1)CCN1CCCN(CCCOC2=O)CC1` (stereo not shown) [Compound 44, 74,75-dimethoxy-6-oxo-5,8-dioxa-1(1,4)-diazepana-7(1,3)-benzenacyclotetradecaphane-12-yl 3-(trifluoromethyl)benzoate] had an IC50 on human ENT1 of 1 to 20 nM.

Take `COc1cc2cc(c1OC)OCCCC(OC(=O)C1CC(=O)N(Cc3ccccc3)C1)CCN1CCCN(CCCOC2=O)CC1` (stereo not shown) [Compound 69, 74,75-dimethoxy-6-oxo-5,8-dioxa-1(1,4)-diazepana-7(1,3)-benzenacyclotetradecaphane-12-yl 1-benzyl-5-oxopyrrolidine-3-carboxylate]: at human ENT1, the IC50 lay within 1 to 20 nM.

On human ENT1, `COc1cc2cc(c1OC)OCCCC(OC(=O)c1ccc(Br)c(C#N)c1)CCN1CCCN(CCCOC2=O)CC1` (stereo not shown) [Compound 48, 74,75-dimethoxy-6-oxo-5,8-dioxa-1(1,4)-diazepana-7(1,3)-benzenacyclotetradecaphane-12-yl 4-bromo-3-cyanobenzoate] registered an IC50 of 1 to 20 nM.

`COc1cc2cc(c1OC)OCCCC(OC(=O)C1CCC(F)(F)CC1)CCN1CCCN(CCCOC2=O)CC1` (stereo not shown) [Compound 105, 74,75-dimethoxy-6-oxo-5,8-dioxa-1(1,4)-diazepana-7(1,3)-benzenacyclotetradecaphane-12-yl 4,4-difluorocyclohexane-1-carboxylate]: the IC50 at human ENT1 is 1 to 20 nM.

As to `COc1cc(C(=O)O[C@@H]2CCCn3cc4c(Cl)cc(cc4n3)C(=O)NCCCN3CCCN(CC2)CC3)cc(OC)c1OC` [Compound 26, (11Z, 16E, 10R)-14-chloro-2-oxo-12H-3-aza-1(6,2)-indazola-7(1,4)-diazepanacyclotridecaphane-10-yl 3,4,5-trimethoxybenzoate], the IC50 on human ENT1 is > 500 nM.

In turn, `COc1cc2cc(c1OC)OCCCC(OC(=O)c1ccc(C#N)c(F)c1)CCN1CCCN(CCCOC2=O)CC1` (stereo not shown) [Compound 82, 74,75-dimethoxy-6-oxo-5,8-dioxa-1(1,4)-diazepana-7(1,3)-benzenacyclotetradecaphane-12-yl 4-cyano-3-fluorobenzoate] returned an IC50 on human ENT1 of 1 to 20 nM.

On to `COc1cc(C(=O)NC2CCCOc3cc(cc(OC)c3OC)C(=O)OCCCN3CCCN(CC2)CC3)cc(OC)c1OC` (stereo not shown) [Compound 3, N-(74,75-dimethoxy-6-oxo-5,8-dioxa-1(1,4)-diazepana-7(1,3)-benzenacyclotetradecaphane-12-yl)-3,4,5-trimethoxybenzamide], for which the IC50 at human ENT1 was > 500 nM.

Turning to `COc1cc(C(=O)O[C@@H]2CCCOc3cc(cc(Cl)c3C(N)=O)C(=O)NCCCN3CCCN(CC2)CC3)cc(OC)c1OC` [Compound 28, (12R)-74-carbamoyl-75-chloro-6-oxo-8-oxa-5-aza-1(1,4)-diazepana-7(1,3)-benzenacyclotetradecaphane-12-yl 3,4,5-trimethoxybenzoate], at human ENT1, the IC50 fell in the range of 1 to 20 nM.

In turn, `COc1cc2cc(c1OC)OCCCC(OC(=O)c1cccc3ncccc13)CCN1CCCN(CCCOC2=O)CC1` (stereo not shown) [Compound 56, 74,75-dimethoxy-6-oxo-5,8-dioxa-1(1,4)-diazepana-7(1,3)-benzenacyclotetradecaphane-12-yl quinoline-5-carboxylate] returned an IC50 on human ENT1 of 1 to 20 nM.

Consider `COc1cc2cc(c1OC)OCCCC(OC(=O)c1cocn1)CCN1CCCN(CCCOC2=O)CC1` (stereo not shown) [Compound 57, 74,75-dimethoxy-6-oxo-5,8-dioxa-1(1,4)-diazepana-7(1,3)-benzenacyclotetradecaphane-12-yl oxazole-4-carboxylate], for which the IC50 at human ENT1 lay within 1 to 20 nM.

`COc1cc2cc(c1OC)OCCCC(OC(=O)CCC#N)CCN1CCCN(CCCOC2=O)CC1` (stereo not shown) [Compound 95, 74,75-dimethoxy-6-oxo-5,8-dioxa-1(1,4)-diazepana-7(1,3)-benzenacyclotetradecaphane-12-yl 3-cyanopropanoate] showed an IC50 at human ENT1 of 1 to 20 nM.

The record behind these values is US20230203058A1, “MACROCYCLIC DIAMINE DERIVATIVES AS ENT INHIBITORS FOR THE TREATMENT OF CANCERS, AND COMBINATION THEREOF WITH ADENOSINE RECEPTOR ANTAGONISTS” (ITEOS BELGIUM SA, priority 2020, published 2023).
